Test results from patent US20260317364A1, “ACTIVE MACROLIDE ANTIBIOTIC COMPOUNDS AGAINST PATHOGENS” (priority 2023, published 2026).

How the values were obtained:
[1] = system: panel of bacterial isolates, including macrolide-resistant strains; experiment: Antibacterial activity against panel of bacterial isolates (MIC); assay type: cell-based; conditions: comparison with other compounds of the series or reference macrolides
Procedure: Acylides 2-24, as well as carbamate acylides 29-42, 47-48 and 55 and 56 were tested for antibacterial activity against a panel of bacterial isolates, including macrolide-resistant strains. Furthermore, potential toxicity against human HEK293 and red blood cells was assessed. All compounds were submitted to ComPlat (Karlsruhe Institute of Technology, Germany) for compound management and screening. As reference antibiotics, the macrolide antibiotics clarithromycin (CTY), telithromycin (TEL), solithromycin (SOL), as well as the previously reported acylides TEA0777 and X10324 (See, Wayne, P. C. a. L. S. I., Methods for Dilution Antimicrobial Susceptibility Tests for Bacteria That Grow Aerobically. CLSI document M07. CLSI 2009) were employed. […]
Furthermore, the Gram-negative bacteria E. coli (DSM 30083), Acinetobacter baumannii Bouvet and Grimont 1986 (DSM 30007) and Pseudomonas aeruginosa (DSM 50071) were assayed. […] The MIC values were determined as previously described (See, Wayne, P. C. a. L. S. I., Methods for Dilution Antimicrobial Susceptibility Tests for Bacteria That Grow Aerobically. CLSI document M07. CLSI 2009; Albada, H. B., et al., Modulating the activity of short arginine-tryptophan containing antibacterial peptides with N-terminal metallocenoyl groups. 2012. 8(1): p. 1753-1764).

[2] = system: E. coli tolC-deficient (tolC; MB5747); experiment: Antibacterial activity against tolC-deficient E. coli; assay type: cell-based

Compound	antibacterial activity (in words) [1]	activity against tolC-deficient E. coli [2]
2-desfluoro-solithromycin [Compound 50]	significantly less potent than solithroymcin	
CC[C@H]1OC(=O)[C@H](C)C(=O)[C@H](C)[C@@H](O[C@@H]2O[C@H](C)C[C@H](N(C)C)[C@H]2O)[C@](C)(OC)C[C@@H](C)C(=O)[C@H](C)[C@H]2N(CCCCn3cnc(-c4cccnc4)c3)C(=O)O[C@]12C [telithromycin]		apart from the clinically used clarithromycin and telithromycin show activity
CC[C@H]1OC(=O)[C@H](C)[C@@H](O[C@H]2C[C@@](C)(OC)[C@@H](O)[C@H](C)O2)[C@H](C)[C@@H](O[C@@H]2O[C@H](C)C[C@H](N(C)C)[C@H]2O)[C@](C)(OC)C[C@@H](C)C(=O)[C@H](C)[C@@H](O)[C@]1(C)O [clarithromycin]		apart from the clinically used clarithromycin and telithromycin show activity
